Results from ChEMBL document CHEMBL1201862, “PubChem BioAssay data set” (2004).
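Protocol summary: plate cells (96-well), add compound at 5 concentrations, incubate 48 h, interpolate endpoints linearly. At the GI50, growth is halved.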 Activity calls are given as the source filed them. Cut-off read from the data, not from the text of the source: active = GI50 up to about 1.1 µM and inactive = higher.

Experiments:
Experiment in all cases: NCI-60 cell line screen, 48 h
CCRF-CEM = tested on: CCRF-CEM
HCT-116 = tested on: HCT-116
M14 = tested on: M14
OVCAR-8 = tested on: OVCAR-8
SNB-75 = tested on: SNB-75
OVCAR-4 = tested on: OVCAR-4
U-251 = tested on: U-251
SK-MEL-5 = tested on: SK-MEL-5
DLD-1 = tested on: DLD-1
NCI-H522 = tested on: NCI-H522
KM12 = tested on: KM12
LOX IMVI = tested on: LOX IMVI
NCI-H23 = tested on: NCI-H23
SN12C = tested on: SN12C
RXF 631 = tested on: RXF 631
CAKI-1 = tested on: CAKI-1
NCI-H226 = tested on: NCI-H226
SK-OV-3 = tested on: SK-OV-3
786-0 = tested on: 786-0
SR = tested on: SR
DMS-114 = tested on: DMS-114
RPMI-8226 = tested on: RPMI-8226
HCT-15 = tested on: HCT-15
IGROV-1 = tested on: IGROV-1
HOP-62 = tested on: HOP-62
UACC-257 = tested on: UACC-257
HOP-18 = tested on: HOP-18
SK-MEL-28 = tested on: SK-MEL-28
KM-20L2 = tested on: KM-20L2
LXFL 529 = tested on: LXFL 529
NCI-H460 = tested on: NCI-H460
SNB-78 = tested on: SNB-78
K562 = tested on: K562
UO-31 = tested on: UO-31
SF-539 = tested on: SF-539
SF-295 = tested on: SF-295
SF-268 = tested on: SF-268
MOLT-4 = tested on: MOLT-4
SK-MEL-2 = tested on: SK-MEL-2
A498 = tested on: A498
HOP-92 = tested on: HOP-92
HL-60 = tested on: HL-60
SW-620 = tested on: SW-620
M19-MEL = tested on: M19-MEL
UACC-62 = tested on: UACC-62
HT-29 = tested on: HT-29
EKVX = tested on: EKVX
OVCAR-3 = tested on: OVCAR-3
Malme-3M = tested on: Malme-3M
A549 = tested on: A549
OVCAR-5 = tested on: OVCAR-5
COLO 205 = tested on: COLO 205
TK-10 = tested on: TK-10
ACHN = tested on: ACHN
SNB-19 = tested on: SNB-19

CC(=O)Nc1ccccc1-c1nc2ccccc2nc1C
GI50 (CCRF-CEM): > 100 µM (inactive) | GI50 (HCT-116): > 100 µM (inactive) | GI50 (M14): > 100 µM (inactive) | GI50 (OVCAR-8): > 100 µM (inactive) | GI50 (SNB-75): 81.5 µM (inactive) | GI50 (OVCAR-4): > 100 µM (inactive) | GI50 (U-251): > 100 µM (inactive) | GI50 (SK-MEL-5): > 100 µM (inactive) | GI50 (DLD-1): > 100 µM (inactive) | GI50 (NCI-H522): > 100 µM (inactive) | GI50 (KM12): > 100 µM (inactive) | GI50 (LOX IMVI): > 100 µM (inactive) | GI50 (NCI-H23): > 100 µM (inactive) | GI50 (SN12C): > 100 µM (inactive) | GI50 (RXF 631): > 100 µM (inactive) | GI50 (CAKI-1): > 100 µM (inactive) | GI50 (NCI-H226): > 100 µM (inactive) | GI50 (SK-OV-3): > 100 µM (inactive) | GI50 (786-0): > 100 µM (inactive) | GI50 (SR): > 100 µM (inactive) | GI50 (DMS-114): > 100 µM (inactive) | GI50 (RPMI-8226): > 100 µM (inactive) | GI50 (HCT-15): > 100 µM | GI50 (IGROV-1): > 100 µM (inactive) | GI50 (HOP-62): > 100 µM (inactive) | GI50 (UACC-257): > 100 µM (inactive) | GI50 (HOP-18): > 100 µM (inactive) | GI50 (SK-MEL-28): > 100 µM (inactive) | GI50 (KM-20L2): > 100 µM (inactive) | GI50 (LXFL 529): > 100 µM (inactive) | GI50 (NCI-H460): > 100 µM (inactive) | GI50 (SNB-78): > 100 µM (inactive) | GI50 (K562): > 100 µM (inactive) | GI50 (UO-31): 61.9 µM (inactive) | GI50 (SF-539): > 100 µM (inactive) | GI50 (SF-295): > 100 µM (inactive) | GI50 (SF-268): > 100 µM (inactive) | GI50 (MOLT-4): > 100 µM (inactive) | GI50 (SK-MEL-2): > 100 µM (inactive) | GI50 (A498): > 100 µM (inactive) | GI50 (HOP-92): > 100 µM (inactive) | GI50 (HL-60): > 100 µM (inactive) | GI50 (SW-620): > 100 µM (inactive) | GI50 (M19-MEL): > 100 µM (inactive) | GI50 (UACC-62): > 100 µM (inactive) | GI50 (HT-29): > 100 µM (inactive) | GI50 (EKVX): > 100 µM (inactive) | GI50 (OVCAR-3): > 100 µM (inactive) | GI50 (Malme-3M): > 100 µM (inactive) | GI50 (A549): > 100 µM (inactive) | GI50 (OVCAR-5): > 100 µM (inactive) | GI50 (COLO 205): > 100 µM (inactive) | GI50 (TK-10): > 100 µM (inactive) | GI50 (ACHN): > 100 µM (inactive) | GI50 (SNB-19): > 100 µM (inactive)
